Experiments:
[1] = biological target: Tb-labeled inactive PDGFRβ (Homo sapiens (Human), UniProt P09619); assay: biochemical; type: binding; conditions: read-out: PDGFR Lantha IC50
PDGFRβ = PDGFRβ (Rattus norvegicus (Rat), UniProt Q05030); assay: PDGFRβ Cellular Assay (PDGFRb P-Y751 HTRF, PDGF-BB stimulated A10 cells); type: cell-based; conditions: A10 cells, 3 hours compound, 15 ng/mL PDGFbb for 10 minutes; read-out: PDGFR Cellular IC50
Summary of the method: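 Rat A10 cells plated overnight were treated with compound for 3 h, stimulated with rat PDGF-BB (working stock 100 ng/mL in 10% FBS medium) for 10 min, then lysed.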

[2] = biological target: His6-TEV-PDGFRβ (557-1016) (Homo sapiens (Human), UniProt P09619); assay: PDGFRβ HTRF Assay; type: biochemical; conditions: 800 μM ATP, 0.5 μM TK-substrate biotin peptide, 30 min pre-incubation, 3 hours reaction; read-out: PDGFR HTRF IC50
VEGFR2, unphosphorylated = VEGFR2, unphosphorylated (Homo sapiens (Human), UniProt P35968); assay: VEGFR ADP GLO assay; type: biochemical; conditions: 5 nM VEGFR2, 1.2 mM ATP, 1 mg/mL Srctide, 180 min
Summary of the method: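 Luminescent ADP detection after a 180-min room-temperature reaction of srctide plus ATP (2 mg/mL and 2.4 mM in 2× mix) in pH 7.5 HEPES buffer with DTT, Pluronic and ovalbumin. Compounds, 11 points from 10 µM, first pre-incubated 30 min with enzyme (2× mix 10 nM). IC50s fitted after scaling between DMSO and 1 µM TAK-593 controls.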

Tb-labeled inactive PDGFRβ, sequence (P09619 whole entry, looked up): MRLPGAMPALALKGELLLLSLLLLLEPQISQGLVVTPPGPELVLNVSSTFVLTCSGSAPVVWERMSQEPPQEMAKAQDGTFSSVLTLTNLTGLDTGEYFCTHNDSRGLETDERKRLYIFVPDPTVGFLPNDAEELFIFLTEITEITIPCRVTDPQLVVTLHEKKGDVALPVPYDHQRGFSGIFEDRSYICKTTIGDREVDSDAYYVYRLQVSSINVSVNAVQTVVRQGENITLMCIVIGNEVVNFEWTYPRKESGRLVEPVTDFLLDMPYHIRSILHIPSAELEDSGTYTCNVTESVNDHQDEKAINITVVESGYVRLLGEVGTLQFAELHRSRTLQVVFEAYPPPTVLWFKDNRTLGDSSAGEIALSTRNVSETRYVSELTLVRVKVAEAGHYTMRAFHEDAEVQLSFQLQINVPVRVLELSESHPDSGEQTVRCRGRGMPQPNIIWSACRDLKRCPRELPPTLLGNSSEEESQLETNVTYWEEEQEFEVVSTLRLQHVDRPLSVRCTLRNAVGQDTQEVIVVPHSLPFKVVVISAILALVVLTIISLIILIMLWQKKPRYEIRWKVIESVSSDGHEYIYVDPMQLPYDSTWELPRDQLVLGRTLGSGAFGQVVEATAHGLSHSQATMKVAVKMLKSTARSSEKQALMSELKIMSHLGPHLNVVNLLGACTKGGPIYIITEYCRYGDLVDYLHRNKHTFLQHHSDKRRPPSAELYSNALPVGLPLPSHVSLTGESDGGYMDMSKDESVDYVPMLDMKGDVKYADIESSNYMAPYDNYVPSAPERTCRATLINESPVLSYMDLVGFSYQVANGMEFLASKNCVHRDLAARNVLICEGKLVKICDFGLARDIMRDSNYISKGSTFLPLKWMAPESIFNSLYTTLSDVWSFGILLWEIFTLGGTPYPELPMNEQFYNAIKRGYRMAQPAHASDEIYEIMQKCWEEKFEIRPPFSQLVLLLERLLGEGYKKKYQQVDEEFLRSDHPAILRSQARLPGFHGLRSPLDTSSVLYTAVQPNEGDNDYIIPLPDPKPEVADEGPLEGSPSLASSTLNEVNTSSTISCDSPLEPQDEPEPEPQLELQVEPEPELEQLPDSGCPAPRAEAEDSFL
His6-TEV-PDGFRβ (557-1016), sequence (P09619 whole entry, looked up): as above
VEGFR2, unphosphorylated, sequence (P35968 whole entry, looked up): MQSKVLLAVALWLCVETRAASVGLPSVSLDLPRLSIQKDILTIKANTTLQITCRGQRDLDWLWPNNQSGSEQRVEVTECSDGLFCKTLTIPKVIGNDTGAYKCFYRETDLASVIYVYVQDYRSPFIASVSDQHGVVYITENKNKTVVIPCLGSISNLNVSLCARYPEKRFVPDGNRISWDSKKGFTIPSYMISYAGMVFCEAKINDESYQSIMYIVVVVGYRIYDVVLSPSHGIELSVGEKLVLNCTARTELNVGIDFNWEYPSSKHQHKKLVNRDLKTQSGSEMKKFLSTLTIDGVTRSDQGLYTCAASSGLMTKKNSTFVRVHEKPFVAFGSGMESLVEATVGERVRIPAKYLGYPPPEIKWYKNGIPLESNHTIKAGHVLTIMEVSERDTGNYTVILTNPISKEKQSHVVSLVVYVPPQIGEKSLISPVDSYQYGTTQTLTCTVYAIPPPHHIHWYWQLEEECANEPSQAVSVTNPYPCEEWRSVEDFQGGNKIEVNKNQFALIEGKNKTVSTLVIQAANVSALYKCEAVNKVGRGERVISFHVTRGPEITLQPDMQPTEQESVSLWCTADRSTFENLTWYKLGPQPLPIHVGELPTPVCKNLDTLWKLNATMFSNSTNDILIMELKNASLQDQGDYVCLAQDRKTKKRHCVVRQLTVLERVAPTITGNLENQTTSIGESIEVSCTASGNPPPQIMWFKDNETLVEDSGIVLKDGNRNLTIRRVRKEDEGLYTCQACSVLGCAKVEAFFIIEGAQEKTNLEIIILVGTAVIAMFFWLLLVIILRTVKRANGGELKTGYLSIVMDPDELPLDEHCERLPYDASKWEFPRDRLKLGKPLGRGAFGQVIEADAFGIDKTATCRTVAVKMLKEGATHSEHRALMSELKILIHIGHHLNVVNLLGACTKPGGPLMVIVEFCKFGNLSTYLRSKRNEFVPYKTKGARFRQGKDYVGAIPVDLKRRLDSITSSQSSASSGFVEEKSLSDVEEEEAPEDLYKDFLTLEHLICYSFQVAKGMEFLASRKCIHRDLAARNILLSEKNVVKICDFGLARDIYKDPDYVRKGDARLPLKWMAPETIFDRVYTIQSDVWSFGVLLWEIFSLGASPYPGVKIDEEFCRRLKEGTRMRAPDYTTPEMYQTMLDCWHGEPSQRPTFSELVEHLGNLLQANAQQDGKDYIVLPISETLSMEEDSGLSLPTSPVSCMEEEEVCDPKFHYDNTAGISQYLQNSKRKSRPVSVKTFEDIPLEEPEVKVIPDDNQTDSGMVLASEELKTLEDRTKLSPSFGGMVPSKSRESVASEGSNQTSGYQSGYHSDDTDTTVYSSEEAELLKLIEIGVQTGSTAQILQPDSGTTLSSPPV
PDGFRβ, sequence (Q05030 whole entry, looked up): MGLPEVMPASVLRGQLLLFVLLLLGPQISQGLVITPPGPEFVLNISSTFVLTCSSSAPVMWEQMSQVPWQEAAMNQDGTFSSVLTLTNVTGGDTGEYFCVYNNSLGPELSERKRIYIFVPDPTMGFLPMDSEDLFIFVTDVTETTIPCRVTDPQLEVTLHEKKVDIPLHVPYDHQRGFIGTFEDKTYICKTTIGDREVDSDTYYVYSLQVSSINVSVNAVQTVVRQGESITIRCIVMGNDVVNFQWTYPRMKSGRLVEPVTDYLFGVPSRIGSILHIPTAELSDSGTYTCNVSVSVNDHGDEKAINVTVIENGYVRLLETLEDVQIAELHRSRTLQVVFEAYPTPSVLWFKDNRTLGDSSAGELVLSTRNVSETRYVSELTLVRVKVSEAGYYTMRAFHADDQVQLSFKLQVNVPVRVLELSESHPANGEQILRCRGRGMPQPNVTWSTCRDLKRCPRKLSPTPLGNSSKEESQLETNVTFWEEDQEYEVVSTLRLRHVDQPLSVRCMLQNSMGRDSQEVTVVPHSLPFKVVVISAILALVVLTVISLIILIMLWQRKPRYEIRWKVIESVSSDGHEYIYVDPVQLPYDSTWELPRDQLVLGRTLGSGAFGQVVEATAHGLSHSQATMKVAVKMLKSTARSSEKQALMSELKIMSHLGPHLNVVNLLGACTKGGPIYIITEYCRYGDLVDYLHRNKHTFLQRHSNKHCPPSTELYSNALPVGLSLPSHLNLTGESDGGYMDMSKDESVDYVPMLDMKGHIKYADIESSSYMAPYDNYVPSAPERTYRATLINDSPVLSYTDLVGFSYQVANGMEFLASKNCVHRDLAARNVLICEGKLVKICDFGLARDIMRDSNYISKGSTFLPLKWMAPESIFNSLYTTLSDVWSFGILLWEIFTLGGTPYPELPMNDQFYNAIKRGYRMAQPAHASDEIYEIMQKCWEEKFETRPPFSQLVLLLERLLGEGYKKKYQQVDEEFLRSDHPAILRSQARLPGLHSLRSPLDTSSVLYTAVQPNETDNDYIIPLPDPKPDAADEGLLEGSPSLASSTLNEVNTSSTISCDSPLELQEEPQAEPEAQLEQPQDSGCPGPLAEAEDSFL

Row | SMILES | IC50 [1] [nM] | IC50 (PDGFRβ) [nM] | IC50 [2] [nM] | IC50 (VEGFR2, unphosphorylated) [nM]
1 | Cc1ncc(C(=O)NCCC2CCCCC2)cc1Nc1nn(C)c2nc(Nc3ccc(CC#N)nc3)ncc12 [Example 105, 5-((6-((6-(cyanomethyl)pyridin-3-yl)amino)-1-methyl-1H-pyrazolo[3,4-d]pyrimidin-3-yl)amino)-N-(2-cyclohexylethyl)-6-methylnicotinamide] | 2.7 | 9.7 | 0.59 | 3360
2 | Cc1ncc(C(=O)NCCN(C(C)C)C(C)C)cc1Nc1nn(C)c2nc(Nc3cncnc3)ncc12 [Example 15, N-(2-(diisopropylamino)ethyl)-6-methyl-5-((1-methyl-6-(pyrimidin-5-ylamino)-1H-pyrazolo[3,4-d]pyrimidin-3-yl)amino)nicotinamide] | 9.9 | 33.2 | 1.01 | > 7500
3 | Cc1ncc(C(=O)NCCN2CCC23CCC3)cc1Nc1nn(C)c2nc(Nc3cnn(C)c3)ncc12 [Example 149, N-(2-(1-azaspiro[3.3]heptan-1-yl)ethyl)-6-methyl-5-((1-methyl-6-((1-methyl-1H-pyrazol-4-yl)amino)-1H-pyrazolo [3,4-d]pyrimidin-3-yl)amino)nicotinamide] | 2.2 | 25.4 | 0.36 | 6560
4 | Cc1ncc(C(=O)NCCN2CCCC2(C)C)cc1Nc1nn(C)c2nc(Nc3cnn(C)c3C)ncc12 [Example 156, 5-((6-((1,5-dimethyl-1H-pyrazol-4-yl)amino)-1-methyl-1H-pyrazolo[3,4-d]pyrimidin-3-yl)amino)-N-(2-(2,2-dimethylpyrrolidin-1-yl)ethyl)-6-methylnicotinamide] | 20.2 | 19.7 | 2.15 | > 7500
5 | Cc1ncc(C(=O)NCCN2CCCC2(C)C)cc1Nc1nn(C)c2nc(Nc3ccnc(N)c3)ncc12 [Example 41, 5-((6-((2-aminopyridin-4-yl)amino)-1-methyl-1H-pyrazolo[3,4-d]pyrimidin-3-yl)amino)-N-(2-(2,2-dimethylpyrrolidin-1-yl)ethyl)-6-methylnicotinamide] | 3.2 | 115 | 0.36 | > 7500
6 | Cc1cc(C(=O)NCCN2CC3COCC3C2)sc1Nc1nn(C)c2nc(Nc3cnn(C)c3)ncc12 (stereo not drawn) [Example 61, 4-methyl-5-((1-methyl-6-((1-methyl-1H-pyrazol-4-yl)amino) 1H-pyrazolo[3,4-d]pyrimidin-3-yl)amino)-N-(2-(tetrahydro-1H-furo[3,4-c]pyrrol-5(3H)-yl)ethyl)thiophene-2-carboxamide] | 10.2 | 86.8 | 0.61 | 3860
7 | Cc1ncc(C(=O)NCCN2C[C@H](C)O[C@@H](C)C2)cc1Nc1nn(C)c2nc(Nc3ccncc3)ncc12 [Example 115, N-(2-((2S,6S)-2,6-dimethylmorpholino)ethyl)-6-methyl-5-((1-methyl-6-(pyridin-4-ylamino)-1H-pyrazolo[3,4-d]pyrimidin-3-yl)amino)nicotinamide] | 3.9 | 20.6 | 0.48 | > 7500
8 | CC(=O)Nc1cccc(Nc2ncc3c(Nc4cc(C(=O)NCCN5CCCC5(C)C)cnc4C)nn(C)c3n2)c1 [Example 98, 5-((6-((3-acetamidophenyl)amino)-1-methyl-1H-pyrazolo[3,4-d]pyrimidin-3-yl)amino)-N-(2-(2,2-dimethylpyrrolidin-1-yl)ethyl)-6-methylnicotinamide] | 12 | 723 | 1.98 | > 7500
9 | Cc1ncc(C(=O)NCCC2CCCCC2)cc1Nc1nn(C)c2nc(Nc3ccc(N4CCNCC4)nc3)ncc12 [Example 109, N-(2-cyclohexylethyl)-6-methyl-5-((1-methyl-6-((6-(piperazin-1-yl)pyridin-3-yl)amino)-1H-pyrazolo[3,4-d]pyrimidin-3-yl)amino)nicotinamide] | 4 | 127 | 0.78 | 167
10 | Cc1ncc(C(=O)NCCN2CCC(F)(F)CC2)cc1Nc1nn(C)c2nc(Nc3cncnc3)ncc12 [Example 1, N-(2-(4,4-difluoropiperidin-1-yl)ethyl)-6-methyl-5-((1-methyl-6-(pyrimidin-5-ylamino)-1H-pyrazolo[3,4-d]pyrimidin-3-yl)amino)nicotinamide] | 3.3 | 12 | 0.65 | > 7500
11 | Cc1ncc(C(=O)NCCN2CCCC23CCC3)cc1Nc1nn(C)c2nc(Nc3cnn(C)c3)ncc12 [Example 151, N-(2-(5-azaspiro[3.4]octan-5-yl)ethyl)-6-methyl-5-((1-methyl-6-((1-methyl-1H-pyrazol-4-yl)amino)-1H-pyrazolo[3,4-d]pyrimidin-3-yl)amino)nicotinamide] | 1.7 | 4.8 | 0.29 | 2960
12 | Cc1ccc(C(=O)NCCN2CCCC2(C)C)cc1Nc1nn(C)c2nc(Nc3cnn(C)c3)ncc12 [Example 66, N-(2-(2,2-dimethylpyrrolidin-1-yl)ethyl)-4-methyl-3-((1-methyl-6-((1-methyl-1H-pyrazol-4-yl)amino)-1H-pyrazolo[3,4-d]pyrimidin-3-yl)amino)benzamide] | 2.3 | 3.4 | 0.28 | 1330
13 | Cn1cc(Nc2ncc3c(Nc4cc(C(=O)NCCN5CCC(F)(F)CC5)ccc4F)nn(C)c3n2)cn1 [Example 63, N-(2-(4,4-difluoropiperidin-1-yl)ethyl)-4-fluoro-3-((1-methyl-6-((1-methyl-1H-pyrazol-4-yl)amino)-1H-pyrazolo[3,4-d]pyrimidin-3-yl)amino)benzamide] | 0.89 | 1.6 | 0.2 | 582
14 | Cc1ncc(C(=O)NCCN2CCCC2(C)C)cc1Nc1nn(C)c2nc(Nc3ccc(=O)[nH]c3)ncc12 [Example 35, N-(2-(2,2-dimethylpyrrolidin-1-yl)ethyl)-6-methyl-5-((1-methyl-6-((6-oxo-1,6-dihydropyridin-3-yl)amino)-1H-pyrazolo[3,4-d]pyrimidin-3-yl)amino)nicotinamide] | 4.7 | 1650 | 0.68 | > 7500
15 | Cc1ncc(C(=O)NCCN2CCCC23CCC3)cc1Nc1nn(C)c2nc(Nc3cncnc3)ncc12 [Example 4, N-(2-(5-azaspiro[3.4]octan-5-yl)ethyl)-6-methyl-5-((1-methyl-6-(pyrimidin-5-ylamino)-1H-pyrazolo[3,4-d]pyrimidin-3-yl)amino)nicotinamide] | 3.2 | 14.5 | 0.46 | > 7500
16 | CC(=O)Nc1cncc(Nc2ncc3c(Nc4cc(C(=O)NCCN5CCCC5(C)C)cnc4C)nn(C)c3n2)c1 [Example 99, 5-((6-((5-acetamidopyridin-3-yl)amino)-1-methyl-1H-pyrazolo[3,4-d]pyrimidin-3-yl)amino)-N-(2-(2,2-dimethylpyrrolidin-1-yl)ethyl)-6-methylnicotinamide] | 5.9 | 137 | 0.66 | > 7500
17 | COC(=O)C1(c2cccc(Nc3ncc4c(Nc5cc(C(=O)NCCN6CCCC6(C)C)cnc5C)nn(C)c4n3)c2)CC1 [Example 37, methyl 1-(3-((3-((5-((2-(2,2-dimethylpyrrolidin-1-yl)ethyl)carbamoyl)-2-methylpyridin-3-yl)amino)-1-methyl-1H-pyrazolo[3,4-d]pyrimidin-6-yl)amino)phenyl)cyclopropanecarboxylate] | 6.5 | 64.2 | 0.79 | 5560
18 | Cc1ncc(NC(=O)CN2CCC[C@@H]2C)cc1Nc1nn(C)c2nc(Nc3ccnn3C)ncc12 [Example 143, (S)—N-(6-methyl-5-((1-methyl-6-((1-methyl-1H-pyrazol-5-yl)amino)-1H-pyrazolo[3,4-d]pyrimidin-3-yl)amino)pyridin-3-yl)-2-(2-methylpyrrolidin-1-yl)acetamide] | 11.7 | 7.4 | 1.2 | > 7500
19 | Cc1ncc(C(=O)NCCN(C)C2CCOCC2)cc1Nc1nn(C)c2nc(Nc3cncnc3)ncc12 [Example 10, 6-methyl-N-(2-(methyl(tetrahydro-2H-pyran-4-yl)amino)ethyl)-5-((1-methyl-6-(pyrimidin-5-ylamino)-1H-pyrazolo[3,4-d]pyrimidin-3-yl)amino)nicotinamide] | 9.9 | 204 | 0.63 | > 7500
20 | Cn1nc(Nc2cc(C(=O)NCCN3CCCC3(C)C)ccc2F)c2cnc(Nc3cncnc3)nc21 [Example 51, N-(2-(2,2-dimethylpyrrolidin-1-yl)ethyl)-4-fluoro-3-((1-methyl-6-(pyrimidin-5-ylamino)-1H-pyrazolo[3,4-d]pyrimidin-3-yl)amino)benzamide] | 9 | 17.2 | 0.87 | > 7500
21 | COCCn1cc(Nc2ncc3c(Nc4cc(C(=O)NCCN5CCCC56CCC6)cnc4C)nn(C)c3n2)cn1 [Example 147, N-(2-(5-azaspiro[3.4]octan-5-yl)ethyl)-5-((6-((1-(2-methoxyethyl)-1H-pyrazol-4-yl)amino)-1-methyl-1H-pyrazolo[3,4-d]pyrimidin-3-yl)amino)-6-methylnicotinamide] | 2.1 | 14.7 | 0.38 | 2670
